In patent US20230011869A1 (Hoffmann-La Roche Inc., priority 2018, published 2023):
Counter-ions that a name gives are not always drawn.

What follows are compounds tested on Acinetobacter baumannii ATCC17978 (assay: Antimicrobial susceptibility testing: 90% growth inhibitory concentration (IC90) determination, Iso-Sensitest broth). Conditions: 90% growth inhibitory concentration, Acinetobacter baumannii ATCC17978, Iso-Sensitest broth, OD 600 nm over 16 h; read-out: ATCC17978 IC90.
Type: cell-based
Summary of the method: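 A. baumannii ATCC17978 grown in Iso-Sensitest broth across 10 compound concentrations at 35±2 °C.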

`CCOc1ccc(-c2cnc3c(Nc4ccc(C(=O)N5CCC(CN)CC5)c(C)c4)nccn23)c(F)c1Cl` [Example 110, (4-(aminomethyl)piperidin-1-yl)(4-((3-(3-chloro-4-ethoxy-2-fluorophenyl)imidazo[1,2-a]pyrazin-8-yl)amino)-2-methylphenyl)methanone formate] and `COc1ccc(-c2cnc3c(Nc4ccc(C(=O)N5CCC(CN)CC5)c(C)c4)nccn23)c(Cl)c1Cl` [Example 113, [4-(aminomethyl)-1-piperidyl]-[4-[[3-(2,3-dichloro-4-methoxy-phenyl)imidazo[1,2-a]pyrazin-8-yl]amino]-2-methyl-phenyl]methanone formate] are within 1.5-fold of each other in IC90: 0.42 µM for the first, 0.28 µM for the second.

First: Cc1cc(Nc2nccn3c(-c4cc(F)c(F)c(F)c4)cnc23)ccc1C(=O)N1CCC(CN)CC1 [Example 111, (4-(aminomethyl)piperidin-1-yl)(2-methyl-4-((3-(3,4,5-trifluorophenyl)imidazo[1,2-a]pyrazin-8-yl)amino)phenyl)methanone]
Second: CSc1ccc(-c2cnc3c(Nc4ccc(C(=O)N5CCC(CN)CC5)c(C)c4)nccn23)cc1F [Example 116, [4-(aminomethyl)-1-piperidyl]-[4-[[3-(3-fluoro-4-methylsulfanyl-phenyl)imidazo[1,2-a]pyrazin-8-yl]amino]-2-methyl-phenyl]methanone formate]
The IC90 of the first is 8.2-fold higher: 4.1 µM for the first, 0.5 µM for the second.

Compared with `CNCCNC(=O)C1CCN(C(=O)c2ccc(Nc3nccn4c(-c5ccc(OC)c(Cl)c5)cnc34)cc2C)CC1` [Example 112, 1-(4-((3-(3-chloro-4-methoxyphenyl)imidazo[1,2-a]pyrazin-8-yl)amino)-2-methylbenzoyl)-N-(2-(methylamino)ethyl)piperidine-4-carboxamide hydrochloride], `Cc1cc(Nc2nccn3c(-c4ccc(OC5CC5)c(Cl)c4)cnc23)ccc1C(=O)N1CCC(CN)CC1` [Example 117, [4-(aminomethyl)-1-piperidyl]-[4-[[3-[3-chloro-4-(cyclopropoxy)phenyl]imidazo[1,2-a]pyrazin-8-yl]amino]-2-methyl-phenyl]methanone formate] is 3-fold higher in IC90: 0.18 µM for the first, 0.54 µM for the second.

Going from `Cc1cc(Nc2nccn3c(-c4ccc(OCC5CC5C#N)c(F)c4F)cnc23)ccc1C(=O)N1CCC(CN)CC1` (centres unmarked) [Example 114, 2-[[4-[8-[4-[4-(aminomethyl)piperidine-1-carbonyl]-3-methyl-anilino]imidazo[1,2-a]pyrazin-3-yl]-2,3-difluoro-phenoxy]methyl]cyclopropanecarbonitrile formate] to `Cc1cc(Nc2nccn3c(-c4ccc(OCCCC#N)c(F)c4F)cnc23)ccc1C(=O)N1CCC(CN)CC1` [Example 120, 4-(4-(8-((4-(4-(aminomethyl)piperidine-1-carbonyl)-3-methylphenyl)amino)imidazo[1,2-a]pyrazin-3-yl)-2,3-difluorophenoxy)butanenitrile], the IC90 rises from 0.41 µM to 1 µM (2.4-fold).

`Cc1cc(Nc2nccn3c(-c4ccc(OC5(C#N)CC5)c(F)c4F)cnc23)ccc1C(=O)N1CCC(CN)CC1` [Example 115, 1-[4-[8-[4-[4-(aminomethyl)piperidine-1-carbonyl]-3-methyl-anilino]imidazo[1,2-a]pyrazin-3-yl]-2,3-difluoro-phenoxy]cyclopropanecarbonitrile formate] and `Cc1cc(Nc2nccn3c(-c4ccc(OC(C)C#N)c(F)c4F)cnc23)ccc1C(=O)N1CCC(CN)CC1` (centres unmarked) [Example 119, 2-[4-[8-[4-[4-(aminomethyl)piperidine-1-carbonyl]-3-methyl-anilino]imidazo[1,2-a]pyrazin-3-yl]-2,3-difluoro-phenoxy]propanenitrile;2,2,2-trifluoroacetic acid] are the same in IC90: 0.4 µM for the first, 0.4 µM for the second.

`Cc1cc(Nc2nccn3c(-c4ccc(OCC5CC5)c(F)c4)cnc23)ccc1C(=O)N1CCC(CN)CC1` [Example 118, (4-(aminomethyl)piperidin-1-yl)(4-((3-(4-(cyclopropylmethoxy)-3-fluorophenyl)imidazo[1,2-a]pyrazin-8-yl)amino)-2-methylphenyl)methanone] gave an IC90 of 0.94 µM.
